Test results from publication PMC9256790 (Molecular cancer therapeutics, 2022).

Legend:
[1] = tested on: cHCI-10; assay: Cell proliferation; assay type: cell-based, Human; details: for proliferation of cHCI-10 cells: 10 nM, 5 days of treatment
[2] = tested on: MDA-MB-231 cells; assay: Wound healing; assay type: cell-based, Human; details: 4 nM, 24 h
[3] = tested on: MDA-MB-231 cells; assay: Immunofluorescence staining of microtubules; assay type: cell-based, Human; details: 24 h
[4] = tested on: cHCI-2; assay: Cell proliferation; assay type: cell-based, Human; details: for proliferation of cHCI-2 cells: 10 nM, 5 days of treatment
[5] = tested on: MDA-MB-231 and MDA-MB-468 cells; assay: Cell cycle analysis; assay type: cell-based, Human; details: 10 nM; 24 h
[6] = tested on: MDA-MB-231 or MDA-MB-468 cells; assay: Colony formation assay; assay type: cell-based, Human; details: 1 to 4 nM; both TNBC cell lines
[7] = tested on: orthotopic MDA-MB-231 xenografts; assay: Orthotopic MDA-MB-231 xenograft in comparison with CA4P; assay type: in vivo, mice
[8] = tested on: MDA-MB-231/TxR; assay: Cell proliferation; assay type: cell-based; details: Homo sapiens, read-out: Mean IC50 ± SEM
[9] = tested on: MDA-MB-468/TxR; assay: Cell proliferation; assay type: cell-based; details: Homo sapiens, MDA-MB-468, read-out: Mean IC50 ± SEM
[10] = tested on: Mia PaCa-2; assay: Cell proliferation; assay type: cell-based; details: Homo sapiens, MIA PaCa-2, read-out: Mean IC50 ± SEM
[11] = tested on: Mia PaCa-2/ColxR; assay: Cell proliferation; assay type: cell-based; details: Homo sapiens, MIA PaCa-2, read-out: Mean IC50 ± SEM
[12] = tested on: MDA-MB-468; assay: Cell proliferation; assay type: cell-based; details: Homo sapiens, MDA-MB-468, read-out: Mean IC50 ± SEM
[13] = Homo sapiens, 120 h, read-out: Mean IC50 ± SEM

For `COc1cc2c(c(OC)c1OC)-c1ccc(OC)c(=O)cc1[C@@H](NC(C)=O)CC2` [Colchicine], the “proliferation of cHCI-10 cells” value [1] was “limited effects”, the wound closure [2] was “closed similar to untreated control cells” and the microtubule structure ([3]; 2.5 nM) was “similarly organized and intact microtubule structures as untreated cells”. For the same compound, the microtubule structure ([3]; 5 nM, interphase) was “disseminated and depolymerized microtubule arrangement”, the “proliferation of cHCI-2 cells” value [4] was “limited effects” and the cell cycle distribution [5] was “little effect on cell cycle progression”. For the same compound, the colony formation [6] was “no effect”.
In the case of `COc1ccc(/C=C\c2cc(OC)c(OC)c(OC)c2)cc1OP(=O)(O)O` [CA4P, fosbretabulin], the “average tumor volume vs vehicle” value ([7]; 28 mg/kg (equivalent to 20 mg/kg CA4) IP 5 times/week) is reported as “significantly reduced” and the body weight ([7]; 28 mg/kg IP 5 times/week) is reported as “no significant loss in body weight”.
In the case of `CC(=O)O[C@H]1C(=O)[C@@]2(C)[C@H]([C@H](OC(=O)c3ccccc3)[C@]3(O)C[C@H](OC(=O)[C@H](O)[C@@H](NC(=O)c4ccccc4)c4ccccc4)C(C)=C1C3(C)C)[C@]1(OC(C)=O)CO[C@@H]1C[C@@H]2O` [Paclitaxel], the IC50 [8] is reported as 0.112 ± 0.0378 µM, the “proliferation of cHCI-10 cells” value [1] is reported as “no activity” and the IC50 [1, 13] is reported as 0.0436 ± 0.0082 µM. The microtubule structure ([3]; 2.5 nM or 5 nM, interphase and mitotic phase) was “condensed microtubules”, the “proliferation of cHCI-2 cells” value [4] was “reduced the proliferation” and the IC50 [4, 13] was 0.0127 ± 0.0058 µM. For the same compound, the IC50 [9] was 0.152 ± 0.0238 µM, the IC50 [10] was 0.0055 ± 0.0006 µM and the cell cycle distribution [5] was “arrested the cells into the M phase and the subG1 phase”. For the same compound, the colony formation [6] was “robustly inhibited colony formation”, the IC50 [11] was 0.0106 ± 0.0011 µM and the IC50 [12] was 0.002 ± 0.0002 µM.
